Laboratory results from the supplement of paper PMC10307832.

Assays:
Assay in all cases: relative viability (nuclei count vs DMSO), 5 days (fraction); higher = more cells survive
XMD8-85 + Luminespib = compound: CN1CCN(CC1)C2=CC(=C(C=C2)NC3=NC=C4C(=N3)N(C5=CC=CC=C5C(=O)N4C)C)OC [XMD8-85] + CCNC(=O)c1noc(-c2cc(C(C)C)c(O)cc2O)c1-c1ccc(CN2CCOCC2)cc1 [Luminespib] (partner 0.01 µM)
Method in brief: (§1)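 A single step with final 0.05% Triton X-100, 1% formaldehyde and 1 ug/ml Hoechst fixed the cells and stained nuclei 5 days after treatment. Lung cancer cell lines in 1536-well plates had been treated by pin tool the day after seeding with one drug alone or a fixed anchor-drug dose plus five library-drug doses (not always all listed) in √10 steps, and nuclei were counted on 4× images. Relative viability is the ratio of nuclei in treated wells to nuclei in vehicle wells, taken as the median of duplicate plates.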

XMD8-85 + Trametinib = compound: CN1CCN(CC1)C2=CC(=C(C=C2)NC3=NC=C4C(=N3)N(C5=CC=CC=C5C(=O)N4C)C)OC [XMD8-85] + CC(=O)Nc1cccc(-n2c(=O)n(C3CC3)c(=O)c3c(Nc4ccc(I)cc4F)n(C)c(=O)c(C)c32)c1 [Trametinib] (partner 0.02 µM)
Method in brief: as §1

4EGI-1 + Olaparib = compound: O=C(O)C(Cc1ccccc1[N+](=O)[O-])=NNc1nc(-c2ccc(Cl)c(Cl)c2)cs1 (mixture of isomers) [4EGI-1] + O=C(c1cc(Cc2n[nH]c(=O)c3ccccc23)ccc1F)N1CCN(C(=O)C2CC2)CC1 [Olaparib] (partner 8 µM)
Method in brief: as §1

4EGI-1 + Pictilisib = compound: O=C(O)C(Cc1ccccc1[N+](=O)[O-])=NNc1nc(-c2ccc(Cl)c(Cl)c2)cs1 (mixture of isomers) [4EGI-1] + CS(=O)(=O)N1CCN(Cc2cc3nc(-c4cccc5[nH]ncc45)nc(N4CCOCC4)c3s2)CC1 [Pictilisib] (partner 1 µM)
Method in brief: as §1

| Cell Line | relative viability (XMD8-85 + Luminespib; first compound 0.08 µM) | relative viability (XMD8-85 + Luminespib; first compound 0.253 µM) | relative viability (XMD8-85 + Luminespib; first compound 0.8 µM) | relative viability (XMD8-85 + Luminespib; first compound 2.53 µM) | relative viability (XMD8-85 + Luminespib; first compound 8 µM) | relative viability (XMD8-85 + Trametinib; first compound 0.08 µM) | relative viability (XMD8-85 + Trametinib; first compound 0.253 µM) | relative viability (XMD8-85 + Trametinib; first compound 0.8 µM) | relative viability (XMD8-85 + Trametinib; first compound 2.53 µM) | relative viability (XMD8-85 + Trametinib; first compound 8 µM) | relative viability (4EGI-1 + Olaparib; first compound 0.5 µM) | relative viability (4EGI-1 + Olaparib; first compound 1.581 µM) | relative viability (4EGI-1 + Olaparib; first compound 5 µM) | relative viability (4EGI-1 + Olaparib; first compound 15.81 µM) | relative viability (4EGI-1 + Olaparib; first compound 50 µM) | relative viability (4EGI-1 + Pictilisib; first compound 0.5 µM) | relative viability (4EGI-1 + Pictilisib; first compound 1.581 µM) | relative viability (4EGI-1 + Pictilisib; first compound 5 µM) | relative viability (4EGI-1 + Pictilisib; first compound 15.81 µM) | relative viability (4EGI-1 + Pictilisib; first compound 50 µM) |
| --- | --- | --- | --- | --- | --- | --- | --- | --- | --- | --- | --- | --- | --- | --- | --- | --- | --- | --- | --- | --- |
| UMC-11 | 0.972 | 1.01 | 1.08 | 0.941 | 0.671 | 0.723 | 0.738 | 0.696 | 0.683 | 0.403 | 0.36 | 0.35 | 0.369 | 0.332 | 0.222 | 1.01 | 0.989 | 0.896 | 0.87 | 0.587 |
| NCI-H727 | 0.431 | 0.527 | 0.359 | 0.322 | 0.344 | 0.373 | 0.375 | 0.405 | 0.37 | 0.368 | 0.638 | 0.679 | 0.717 | 0.496 | 0.592 | 0.382 | 0.451 | 0.26 | 0.344 | 0.328 |
| NCI-H1299 |  |  |  |  |  |  |  |  |  |  | 1.01 | 0.95 | 0.942 | 0.863 | 0.317 | 0.863 | 0.824 | 1.03 | 0.732 | 0.163 |
| NCI-H1563 | 0.608 | 0.488 | 0.505 | 0.536 | 0.567 |  |  |  |  |  |  |  |  |  |  | 0.637 | 0.662 | 0.622 | 0.662 | 0.521 |
| NCI-H1648 |  |  |  |  |  | 0.493 | 0.416 | 0.397 | 0.337 | 0.354 | 0.742 | 0.79 | 0.965 | 0.566 | 0.48 |  |  |  |  |  |
| Calu-6 |  |  |  |  |  |  |  |  |  |  | 0.559 | 0.5 | 0.627 | 0.464 | 0.332 | 0.969 | 0.937 | 0.825 | 0.79 | 0.198 |
| IA-LM |  |  |  |  |  |  |  |  |  |  | 0.767 | 0.771 | 0.644 | 0.154 | 0.0834 | 0.349 | 0.317 | 0.243 | 0.0957 | 0.08 |
| HCC-366 |  |  |  |  |  | 0.33 | 0.35 | 0.467 | 0.324 | 0.307 | 0.342 | 0.203 | 0.395 | 0.257 | 0.0601 | 0.222 |  | 0.119 | 0.0976 | 0.0789 |
| EBC-1 |  |  |  |  |  |  |  |  |  |  | 0.808 | 0.755 | 0.765 | 0.506 | 0.237 | 0.519 | 0.405 | 0.416 | 0.269 | 0.19 |
| A549 |  |  |  |  |  |  |  |  |  |  | 0.495 |  | 0.306 | 0.355 | 0.301 | 0.456 | 0.454 | 0.603 | 0.433 | 0.0907 |
| ABC-1 |  |  | 0.793 | 0.703 | 0.373 |  |  |  |  |  | 0.885 |  | 1.19 | 1.16 | 0.269 | 0.898 | 0.647 | 0.724 | 0.359 | 0.268 |
| NCI-H1703 |  |  |  |  |  |  |  |  |  |  | 0.601 | 0.46 | 0.409 | 0.52 | 0.331 | 0.266 | 0.253 | 0.238 | 0.222 | 0.255 |
| NCI-H522 | 1.15 | 1.31 | 0.92 | 1.06 | 0.97 | 0.821 | 0.653 | 0.739 | 0.698 | 0.537 | 0.694 | 0.776 | 0.617 | 0.574 | 0.471 |  |  |  |  |  |
